Counter-ions that a name gives are not always drawn.

A short description of this data set: Comparative stability, Formulation 1 (Na3-citrate buffered). The format is physicochemical. The note with it: Formulation 1, 25° C. As to the method:
The stability of Compound (1c) either as the HCl salt or as the free base was compared to the stability of melphalan HCl and/or bendamustine HCl in various pharmaceutical formulations and at different concentrations and at temperatures of 0° C. or 25° C.
The stability of the compounds in the pharmaceutical formulations was determined at concentrations within the range from 0.4 mg/mL to 0.5 mg/mL, from 0.9 mg/mL to 1.1 mg/mL, and from 1.8 mg/mL to 2.1 mg/mL.
The amount of the active pharmaceutical ingredient (API) (Compound (1c), melphalan or bendamustine) in the pharmaceutical formulations at different times during storage was determined using HPLC/UV as described in detail for Example 4 and Example 5.
The first formulation included a mixture of 57.5 vol-% 1,2-propylene glycol (1,2-PG), 30 vol-% Kolliphor® HS 15 (Solutol®, Macrogol®, BASF AG/SigmaAldrich), and 12.5 vol-% ethanol (EtOH), and the resulting solution was further diluted and adjusted to pH 6.8 using a pH 8.1-8.3 Na3-citrate buffer (51 mM Na3-citrate·2H2O and 73.6 mM NaCl).
The pH 8.1-8.3 Na3-citrate buffer was prepared form 1.50 g (5.10 mmol) of Na3-citrate. 2H2O (Na3C6H5O7·2H2O; MW 294.10 g/mol; J. T. Baker, 3650-01) and 0.43 g (7.36 mmol) of sodium chloride (NaCl; MW 58.44 g/mol; SigmaAldrich, S9888) dissolved to 100 mL with double-distilled water (dd-H2O) (Arrowhead). The solution was filtered through a 0.45 μm nylon syringe filter, and the pH of the solution was adjusted to 8.1-8.3 with a saturated aqueous solution of sodium hydrogencarbonate (NaHCO3).
The excipient mixture was prepared from 4.77 g (62.7 mmol; 4.6 mL) 1,2-propylene glycol (1,2-PG; MW 76.09 g/mol; d 1.036; Acros Organics, 220870010), 2.52 g (2.40 mL, d 1.05) of melted (15 s microwaving) Kolliphor® HS 15 (BASF AG/SigmaAldrich, 42966), and 0.798 g (17.32 mmol, 1.0 mL) of ethanol (EtOH, MW 46.06 g/mol, d 0.798, KOPTEC, V1016). The clear viscous mixture was warmed to about 40° C. before use (water bath).
A series of 12 mL glass vials each containing 6.1 mg ([…]) of Compound (1c) mono-hydrochloride salt (corresponding to 5.5 mg of Compound (1c) as the free base) were prepared as described in Example 5 through lyophilization of aliquots of an acidified stock solution.
660 μL (6 vol-%) of pre-warmed excipient mixture were added to the Compound (1c) mono-hydrochloride salt in the vial. Compound (1c) mono-hydrochloride salt was dissolved with gentle heating and vortexing. The viscous solution was further diluted with 10,340 μL (94 vol-%) of pH 8.1-8.3 Na3-citrate buffer to provide 11.0 mL of a clear, colorless formulation with a concentration of 0.5 mg/ml of Compound (1c) as a monohydrochloride salt and a pH of 6-7.
330 μL (6 vol-%) of pre-warmed excipient mixture were added to the Compound (1c) mono-hydrochloride salt in the vial. Compound (1c) mono-hydrochloride salt was dissolved with gentle heating and vortexing. The viscous solution was further diluted with 5,170 μL (94 vol-%) of pH 8.1-8.3 Na3-citrate buffer to provide 5.5 mL of a clear, colorless formulation with a concentration of 1.0 mg/mL of Compound (1c) as a monohydrochloride salt and a pH of 6-7.
165 μL (6 vol-%) of pre-warmed excipient mixture were added to the Compound (1c) mono-hydrochloride salt in the vial. Compound (1c) mono-hydrochloride salt was dissolved with gentle heating and vortexing. The viscous solution was further diluted with 2,585 μL (94 vol-%) of pH 8.1-8.3 Na3-citrate buffer to provide 2.75 mL of a clear, colorless formulation with a concentration of 2.0 mg/ml of Compound (1c) as a monohydrochloride salt and a pH of 6-7.
The solutions were placed in glass vials and stored at room temperature (about 25° C.), and the amount of Compound (1c) derived from the mono hydrochloride salt (mono HCl salt) of compound of Formula (1c) was measured at intervals using analytical high pressure liquid chromatography coupled to a UV detector (HPLC/UV) as described in Example 4.

On to `Cc1ccc(N(CCCl)CCCl)cc1C[C@H](N)CC(=O)O` [Compound (1c)•HCl, (S)-3-amino-4-(5-(bis(2-chloroethyl)amino)-2-methylphenyl) butanoic acid mono hydrochloride salt], for which the “% API” value reads like this: (pH 6.8, 0.5 hours, 0.4-0.5 mg/mL) 79%; (pH 6.8, 0.5 hours, 0.9-1.1 mg/mL) 84%; (pH 6.8, 0.5 hours, 1.8-2.1 mg/mL) 88%; (pH 6.8, 2.0 hours, 0.4-0.5 mg/mL) 52%; (pH 6.8, 2.0 hours, 0.9-1.1 mg/mL) 55%; (pH 6.8, 2.0 hours, 1.8-2.1 mg/mL) 65%.

These data come from US20250282895A1, “PHARMACEUTICAL COMPOSITIONS OF CHEMOTHERAPEUTIC AGENTS BASED ON BETA-S[…]-AMINO ACID DERIVATIVES” (priority 2021, published 2025).
